Assays:
Assay in all cases: relative viability (nuclei count vs DMSO), 5 days (fraction); higher = more cells survive
[1] = compound: C1=CC2=NC=CN=C2C=C1/C=C/3\C(=O)NC(=O)S3 + Nc1ncn([C@H]2C[C@H](O)[C@@H](CO)O2)c(=O)n1 [Decitabine] (partner 2 µM)
Outline: (§1)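 One day after seeding in 1536-well plates, lung cancer cell lines were dosed by pin tool. Dosing was either single-drug or a fixed anchor-drug dose plus five library-drug doses (not always all listed) in √10 steps. After 5 days, nuclei were stained in one fix-and-stain step and counted on 4× images, and relative viability is the nuclei count of treated wells over that of vehicle wells, given as the median of duplicate plates.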

[2] = compound: C1=CC2=NC=CN=C2C=C1/C=C/3\C(=O)NC(=O)S3 + CCNC(=O)c1noc(-c2cc(C(C)C)c(O)cc2O)c1-c1ccc(CN2CCOCC2)cc1 [Luminespib] (partner 0.01 µM)
Outline: as §1

BGJ398 + Linsitinib = compound: CCN1CCN(c2ccc(Nc3cc(N(C)C(=O)Nc4c(Cl)c(OC)cc(OC)c4Cl)ncn3)cc2)CC1 [BGJ398] + C[C@]1(O)C[C@@H](c2nc(-c3ccc4ccc(-c5ccccc5)nc4c3)c3c(N)nccn32)C1 [Linsitinib] (partner 1 µM)
Outline: as §1

[3] = compound: C1=CC2=NC=CN=C2C=C1/C=C/3\C(=O)NC(=O)S3 + N=C(N)NC(=N)NCCc1ccccc1 [Phenformin] (partner 250 µM)
Outline: as §1

Cell Line	relative viability ([1]; first compound 0.02 µM)	relative viability ([1]; first compound 0.06325 µM)	relative viability ([1]; first compound 0.2 µM)	relative viability ([1]; first compound 0.6325 µM)	relative viability ([1]; first compound 2 µM)	relative viability ([2]; first compound 0.02 µM)	relative viability ([2]; first compound 0.06325 µM)	relative viability ([2]; first compound 0.2 µM)	relative viability ([2]; first compound 0.6325 µM)	relative viability ([2]; first compound 2 µM)	relative viability (BGJ398 + Linsitinib; first compound 0.01 µM)	relative viability (BGJ398 + Linsitinib; first compound 0.03162 µM)	relative viability (BGJ398 + Linsitinib; first compound 0.1 µM)	relative viability (BGJ398 + Linsitinib; first compound 0.3162 µM)	relative viability (BGJ398 + Linsitinib; first compound 1 µM)	relative viability ([3]; first compound 0.02 µM)	relative viability ([3]; first compound 0.06325 µM)	relative viability ([3]; first compound 0.2 µM)	relative viability ([3]; first compound 0.6325 µM)	relative viability ([3]; first compound 2 µM)
NCI-H3122	0.434	0.431	0.468	0.459	0.403	0.0669	0.0861	0.11	0.0884	0.106	1	1.06	0.997	1.05	1.02	0.401	0.356	0.379	0.392	0.366
NCI-H1975	0.362	0.359	0.436	0.37	0.359	0.289	0.117	0.202	0.149	0.174	1.08	1.07	1.11	1.03	0.965	0.406	0.448	0.408	0.402	0.312
NCI-H1944	0.364	0.386	0.432	0.423	0.462	0.667	0.515	0.75	0.695	0.656	1.17	1.22	1.28	1.2	1.28	0.187	0.188	0.199	0.204	0.155
LU99A	0.932	0.828	0.884	0.751	0.725	0.296	0.207	0.294	0.267	0.24	0.524	0.47	0.575	0.51	0.441	0.799	0.814	0.862	0.926	0.625
SW 1573	0.506	0.65	0.603	0.544	0.367	0.492	0.267	0.222	0.762	0.208	0.859	0.894	0.886	0.812	0.933	0.377	0.443	0.429	0.323	0.287
NCI-H2347	0.631	0.829	0.631	0.586	0.546	0.38	0.288	0.548	0.354	0.431	0.989	1.08	0.975	0.968	1	0.352	0.322	0.422	0.394	0.375
NCI-H2009	0.353	0.388	0.358	0.381	0.352	0.973	0.995	1.04	1.05	1.05	1.18	1.24	1.14	1.16	1.17	0.507	0.454	0.508	0.482	0.461
HCC-15	0.625	0.686	0.717	0.561	0.553	0.278	0.197	0.271	0.304	0.214	0.981	0.968	0.921	0.981	0.936	0.497	0.471	0.488	0.457	0.336
HCC-44	0.872	1.07	0.942	0.961	0.843	1	0.829	1.06	1.04	0.868	0.63	0.616	0.7	0.76	0.629	0.314	0.212	0.202	0.153	0.122
COR-L23	0.481	0.466	0.445	0.414	0.369	0.684	0.842	0.77	0.581	0.652	0.929	0.873	1.04	0.975	0.923	0.459	0.455	0.46	0.43	0.425
NCI-H727	0.891	0.848	0.957	0.915	0.445	0.427	0.496	0.403	0.444	0.265	0.345	0.281	0.286	0.291	0.301	0.552	0.504	0.686	0.454	0.283
NCI-H2087	0.355	0.255	0.256	0.253	0.267	0.169	0.208	0.227	0.173	0.203	0.973	0.886	0.988	0.922	0.881	0.428	0.33	0.42	0.493	0.502
BEN	0.715	0.774	0.886	0.691	0.635	0.631	0.19	0.402	0.332	0.314	0.935	0.95	0.89	0.818	0.798	0.253	0.3	0.247	0.275	0.272
LCLC-103H	0.71	0.798	0.707	0.747	0.709	1.02	0.966	0.906	0.966	0.806	1.05	1.15	1.07	1.02	1.1	0.325	0.322	0.351	0.354	0.25
EKVX	0.258	0.399	0.287	0.337	0.373	0.846	0.636	0.831	0.839	0.776	0.776	0.859	1.17	1.05	1.05	0.216	0.22	0.239	0.223	0.225
LXF-289	0.357	0.374	0.334	0.379	0.389	0.638	0.738	0.693	0.642	0.561	0.944	0.886	0.883	0.84	0.899	0.491	0.501	0.535	0.526	0.478
